Experimental findings from ChEMBL document CHEMBL4811281, “Identification of aryl sulfonamides as novel and potent inhibitors of NaV1.5” (Bioorg Med Chem Lett, 2021) are described below.

The target of data set [1] is T1, Sodium channel protein type 5 subunit alpha (Homo sapiens, UniProt Q14524). The experiment in a line: Inhibition of human Nav1.5 by automated voltage clamp electrophysiology.
The nature of data set [2]: Intrinsic clearance in human liver microsomes. Type of data set: ADME, Microsome. As to conditions: read-out: CLH; call rule not given here.
Data set [3] is described as follows: Intrinsic clearance in mouse liver microsomes. Type of data set: ADME, Microsome. To be noted: read-out: CLH.
A short description of data set [4]: Inhibition of human Nav1.5 VSD4 R1631A mutant by automated voltage clamp electrophysiology.
A short description of data set [5]: Inhibition of human Nav1.5 VSD4 R1622A mutant by automated voltage clamp electrophysiology.
Data set [6] is described as follows: Inhibition of human Nav1.5 VSD4 R1625A mutant by automated voltage clamp electrophysiology.
The nature of data set [7]: Inhibition of human Nav1.5 VSD4 R1628A mutant by automated voltage clamp electrophysiology.
A short description of data set [8]: Inhibition of human Nav1.5 VSD4 R1634A mutant by automated voltage clamp electrophysiology.
For data set [9], the target named is Sodium channel protein type 5 subunit alpha (Homo sapiens, UniProt Q14524, R814A). The experiment in a line: Inhibition of human Nav1.5 VSD2 R814A mutant by automated voltage clamp electrophysiology.
A further data set concerns the target Cytochrome P450 1A2 (Homo sapiens, UniProt P05177). The experiment in a line: Inhibition of CYP1A2 (unknown origin). Type of data set: ADME.
A further data set deals with Cytochrome P450 3A4 (Homo sapiens, UniProt P08684). Put plainly: Inhibition of CYP3A4 (unknown origin). Type of data set: ADME.
A further data set has as its target Cytochrome P450 2C19 (Homo sapiens, UniProt P33261). Put plainly: Inhibition of CYP2C19 (unknown origin). In kind it is ADME.
A further data set addresses Cytochrome P450 2D6 (Homo sapiens, UniProt P10635). The experiment in a line: Inhibition of CYP2D6 (unknown origin). Type of data set: ADME.
The next data set addresses Cytochrome P450 2C9 (Homo sapiens, UniProt P11712). The experiment in a line: Inhibition of CYP2C9 (unknown origin). In kind it is ADME.
The nature of data set [10]: Clearance in FVB mouse at 1 mg/kg, iv. Type of data set: ADME, organism-based. To be noted: in vivo.
Data set [11] in a line: Half life in FVB mouse at 1 mg/kg, iv. Type of data set: ADME, organism-based. To be noted: in vivo.
The nature of data set [12]: Volume of distribution at steady state in FVB mouse at 1 mg/kg, iv. As to conditions: in vivo, read-out: Vdss. Type of data set: ADME, organism-based.
Data set [13] can be described thus: AUC in FVB mouse at 1 mg/kg, iv. Type of data set: ADME, organism-based. More on the design: dose 1 mg/kg. To be noted: in vivo.
Data set [14] is described as follows: Cmax in FVB mouse at 10 mg/kg, po. Type of data set: ADME, organism-based. To be noted: in vivo. More on the design: route oral, dose 10 mg/kg.
Data set [15] in a line: Half life in FVB mouse at 10 mg/kg, po. To be noted: in vivo. Type of data set: ADME, organism-based.
Data set [16] can be described thus: AUC in FVB mouse at 10 mg/kg, po. In kind it is ADME, organism-based. More on the design: dose 10 mg/kg. To be noted: in vivo.
Data set [17] in a line: Oral bioavailability in FVB mouse at 10 mg/kg. As to conditions: in vivo. Type of data set: ADME, organism-based.
Data set [18] deals with T1, Sodium channel protein type 5 subunit alpha. The experiment in a line: Displacement of [3H]BNZA from Nav1.5 (unknown origin).
Data set [19] can be described thus: Drug uptake in FVB mouse brain at 10 mg/kg, po measured after 2 hrs. As to conditions: read-out: Drug uptake. Type of data set: ADME, organism-based.
The nature of data set [20]: Plasma concentration in FVB mouse at 10 mg/kg, po measured after 2 hrs. In kind it is ADME, organism-based.
A short description of data set [21]: Ratio of drug level in brain to plasma in FVB mouse at 10 mg/kg, po measured after 2 hrs. To be noted: read-out: BPR. In kind it is ADME, organism-based.
Data set [22] is described as follows: Inhibition of human Nav1.5 VSD4 F1759A mutant by automated voltage clamp electrophysiology.

T1 sequence (Q14524 whole entry): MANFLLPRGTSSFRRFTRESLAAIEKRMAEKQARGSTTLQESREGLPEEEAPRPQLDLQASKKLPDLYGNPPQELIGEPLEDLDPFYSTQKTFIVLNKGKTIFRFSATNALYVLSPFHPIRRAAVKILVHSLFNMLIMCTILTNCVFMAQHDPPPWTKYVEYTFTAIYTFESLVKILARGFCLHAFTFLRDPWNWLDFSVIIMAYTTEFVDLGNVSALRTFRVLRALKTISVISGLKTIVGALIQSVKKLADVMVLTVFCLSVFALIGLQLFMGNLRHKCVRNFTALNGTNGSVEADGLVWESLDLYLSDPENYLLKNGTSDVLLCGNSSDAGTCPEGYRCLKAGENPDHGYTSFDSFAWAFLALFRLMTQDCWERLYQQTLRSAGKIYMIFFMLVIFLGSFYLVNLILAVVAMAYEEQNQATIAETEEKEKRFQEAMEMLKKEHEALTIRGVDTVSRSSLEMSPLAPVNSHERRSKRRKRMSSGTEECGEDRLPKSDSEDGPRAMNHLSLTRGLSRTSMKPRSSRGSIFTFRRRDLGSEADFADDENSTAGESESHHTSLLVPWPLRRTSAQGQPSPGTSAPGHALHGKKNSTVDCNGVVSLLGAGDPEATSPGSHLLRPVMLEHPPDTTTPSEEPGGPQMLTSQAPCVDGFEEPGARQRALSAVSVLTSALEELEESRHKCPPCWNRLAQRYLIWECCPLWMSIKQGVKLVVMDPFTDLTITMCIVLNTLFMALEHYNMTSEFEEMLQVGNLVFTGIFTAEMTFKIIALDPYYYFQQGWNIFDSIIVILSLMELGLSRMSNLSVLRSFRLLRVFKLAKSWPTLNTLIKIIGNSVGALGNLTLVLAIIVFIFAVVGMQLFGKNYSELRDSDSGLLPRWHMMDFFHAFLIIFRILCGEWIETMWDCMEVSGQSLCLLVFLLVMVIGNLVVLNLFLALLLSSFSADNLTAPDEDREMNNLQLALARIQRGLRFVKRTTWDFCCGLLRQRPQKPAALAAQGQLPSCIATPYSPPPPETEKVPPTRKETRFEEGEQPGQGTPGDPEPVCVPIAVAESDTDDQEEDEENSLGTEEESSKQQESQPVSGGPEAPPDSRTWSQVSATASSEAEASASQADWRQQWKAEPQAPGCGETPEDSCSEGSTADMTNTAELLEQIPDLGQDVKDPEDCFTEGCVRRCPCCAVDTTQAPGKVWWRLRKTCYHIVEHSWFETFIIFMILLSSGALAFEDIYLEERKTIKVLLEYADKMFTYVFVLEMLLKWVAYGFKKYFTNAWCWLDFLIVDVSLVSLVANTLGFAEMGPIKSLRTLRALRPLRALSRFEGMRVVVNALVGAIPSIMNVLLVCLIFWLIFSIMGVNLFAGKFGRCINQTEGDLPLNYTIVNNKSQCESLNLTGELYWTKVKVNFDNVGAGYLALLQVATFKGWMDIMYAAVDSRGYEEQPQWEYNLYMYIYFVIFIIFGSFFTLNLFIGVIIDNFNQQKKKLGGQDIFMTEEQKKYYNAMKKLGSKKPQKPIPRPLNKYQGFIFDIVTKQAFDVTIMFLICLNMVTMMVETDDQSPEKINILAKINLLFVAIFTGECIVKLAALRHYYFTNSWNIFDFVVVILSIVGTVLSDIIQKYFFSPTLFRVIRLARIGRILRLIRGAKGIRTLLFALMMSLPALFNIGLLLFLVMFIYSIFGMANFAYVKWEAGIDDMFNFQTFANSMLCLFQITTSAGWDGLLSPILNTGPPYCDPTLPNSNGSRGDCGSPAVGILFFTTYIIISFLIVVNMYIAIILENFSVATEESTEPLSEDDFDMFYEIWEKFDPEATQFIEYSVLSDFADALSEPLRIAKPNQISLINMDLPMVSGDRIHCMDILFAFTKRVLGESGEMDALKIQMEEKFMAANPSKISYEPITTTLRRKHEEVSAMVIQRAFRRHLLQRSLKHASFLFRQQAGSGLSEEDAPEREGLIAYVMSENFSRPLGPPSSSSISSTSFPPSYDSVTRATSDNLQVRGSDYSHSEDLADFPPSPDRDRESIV
Chain of Sodium channel protein type 5 subunit alpha (Homo sapiens, UniProt Q14524, R814A) (Q14524 whole entry R814A): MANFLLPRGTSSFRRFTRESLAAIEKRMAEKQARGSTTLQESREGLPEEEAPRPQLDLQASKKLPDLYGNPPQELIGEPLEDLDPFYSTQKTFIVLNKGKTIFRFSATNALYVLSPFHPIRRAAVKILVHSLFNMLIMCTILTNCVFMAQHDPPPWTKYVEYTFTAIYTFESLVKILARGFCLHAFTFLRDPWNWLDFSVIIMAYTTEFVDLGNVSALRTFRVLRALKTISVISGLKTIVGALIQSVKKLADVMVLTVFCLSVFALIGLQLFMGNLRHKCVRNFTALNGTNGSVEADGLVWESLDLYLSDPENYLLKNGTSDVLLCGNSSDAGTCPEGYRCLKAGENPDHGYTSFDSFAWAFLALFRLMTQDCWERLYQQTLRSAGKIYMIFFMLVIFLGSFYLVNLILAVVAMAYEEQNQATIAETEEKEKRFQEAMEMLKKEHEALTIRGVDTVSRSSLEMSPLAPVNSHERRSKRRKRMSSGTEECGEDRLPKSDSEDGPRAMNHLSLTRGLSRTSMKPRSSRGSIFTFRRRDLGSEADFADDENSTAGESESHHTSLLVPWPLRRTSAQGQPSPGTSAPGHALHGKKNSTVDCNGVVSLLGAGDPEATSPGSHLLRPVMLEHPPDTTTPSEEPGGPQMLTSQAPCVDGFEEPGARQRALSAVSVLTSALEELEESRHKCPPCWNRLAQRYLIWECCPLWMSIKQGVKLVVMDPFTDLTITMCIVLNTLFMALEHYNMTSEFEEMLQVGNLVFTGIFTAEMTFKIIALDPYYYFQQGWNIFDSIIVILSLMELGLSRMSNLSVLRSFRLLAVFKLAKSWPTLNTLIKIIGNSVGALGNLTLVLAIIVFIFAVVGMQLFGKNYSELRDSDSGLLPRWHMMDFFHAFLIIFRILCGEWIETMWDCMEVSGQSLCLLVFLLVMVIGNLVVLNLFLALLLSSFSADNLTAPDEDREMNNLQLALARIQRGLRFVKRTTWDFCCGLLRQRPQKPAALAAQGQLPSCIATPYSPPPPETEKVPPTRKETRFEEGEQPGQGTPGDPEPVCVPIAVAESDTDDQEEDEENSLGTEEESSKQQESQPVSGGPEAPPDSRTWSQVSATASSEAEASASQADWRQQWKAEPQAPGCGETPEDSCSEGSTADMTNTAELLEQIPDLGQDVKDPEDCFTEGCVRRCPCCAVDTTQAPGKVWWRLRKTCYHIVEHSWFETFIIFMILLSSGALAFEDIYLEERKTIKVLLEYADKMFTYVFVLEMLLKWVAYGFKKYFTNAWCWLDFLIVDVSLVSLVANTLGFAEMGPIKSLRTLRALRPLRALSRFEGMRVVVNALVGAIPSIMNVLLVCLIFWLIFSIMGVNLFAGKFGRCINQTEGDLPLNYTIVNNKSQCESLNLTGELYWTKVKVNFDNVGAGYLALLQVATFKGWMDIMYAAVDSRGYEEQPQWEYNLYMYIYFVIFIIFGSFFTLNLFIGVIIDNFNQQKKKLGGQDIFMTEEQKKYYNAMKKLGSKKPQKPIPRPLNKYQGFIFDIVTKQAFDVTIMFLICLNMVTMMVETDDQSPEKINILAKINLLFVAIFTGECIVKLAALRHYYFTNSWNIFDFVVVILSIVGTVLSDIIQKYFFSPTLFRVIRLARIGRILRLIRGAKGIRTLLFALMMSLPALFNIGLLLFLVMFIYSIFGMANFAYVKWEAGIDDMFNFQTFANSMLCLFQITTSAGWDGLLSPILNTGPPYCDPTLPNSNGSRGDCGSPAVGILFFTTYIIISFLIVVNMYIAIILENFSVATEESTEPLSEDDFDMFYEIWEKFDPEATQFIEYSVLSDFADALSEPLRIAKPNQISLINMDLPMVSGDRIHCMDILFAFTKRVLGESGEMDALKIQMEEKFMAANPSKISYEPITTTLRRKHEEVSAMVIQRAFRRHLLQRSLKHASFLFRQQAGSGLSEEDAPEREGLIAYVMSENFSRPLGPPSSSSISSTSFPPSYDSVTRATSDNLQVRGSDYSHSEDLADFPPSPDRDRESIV
Chain of Cytochrome P450 1A2 (P05177 whole entry): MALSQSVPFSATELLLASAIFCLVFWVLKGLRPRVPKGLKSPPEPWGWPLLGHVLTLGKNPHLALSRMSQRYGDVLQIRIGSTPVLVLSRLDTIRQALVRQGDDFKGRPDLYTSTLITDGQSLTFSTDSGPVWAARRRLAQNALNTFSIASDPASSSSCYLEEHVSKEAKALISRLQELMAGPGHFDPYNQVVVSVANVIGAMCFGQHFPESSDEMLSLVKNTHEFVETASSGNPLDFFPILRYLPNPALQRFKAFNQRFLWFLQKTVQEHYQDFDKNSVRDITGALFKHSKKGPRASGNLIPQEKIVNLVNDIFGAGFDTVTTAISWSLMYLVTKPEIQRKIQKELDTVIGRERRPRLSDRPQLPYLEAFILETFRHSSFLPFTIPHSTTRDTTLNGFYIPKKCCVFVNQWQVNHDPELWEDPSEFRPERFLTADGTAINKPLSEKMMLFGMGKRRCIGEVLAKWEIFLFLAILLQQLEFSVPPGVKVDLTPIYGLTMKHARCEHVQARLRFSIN
Chain of Cytochrome P450 2D6 (P10635 whole entry): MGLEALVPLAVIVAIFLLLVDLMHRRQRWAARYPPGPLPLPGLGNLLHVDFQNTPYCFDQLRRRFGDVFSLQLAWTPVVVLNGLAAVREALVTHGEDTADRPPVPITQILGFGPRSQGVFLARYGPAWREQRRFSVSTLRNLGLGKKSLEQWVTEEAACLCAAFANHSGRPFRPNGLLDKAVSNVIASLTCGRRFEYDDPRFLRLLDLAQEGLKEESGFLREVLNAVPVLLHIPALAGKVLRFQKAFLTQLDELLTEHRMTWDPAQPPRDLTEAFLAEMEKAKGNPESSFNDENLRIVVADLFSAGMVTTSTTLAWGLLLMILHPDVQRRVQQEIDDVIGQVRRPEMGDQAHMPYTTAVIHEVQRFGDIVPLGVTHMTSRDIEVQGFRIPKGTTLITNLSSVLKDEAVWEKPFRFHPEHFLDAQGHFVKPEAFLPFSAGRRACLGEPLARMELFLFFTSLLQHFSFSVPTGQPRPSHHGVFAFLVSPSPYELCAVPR

In the case of `O=S(=O)(Nc1cccc(F)n1)c1cc(F)c(O[C@H]2CCN(CC(F)(F)F)C[C@@H]2c2ccccc2)cc1F` (racemic), the IC50 in [1] is 700 nM; in data set [4], 570 nM; in data set [5], 1290 nM; in [6] it was 810 nM; in data set [7], 820 nM; in [8], 1210 nM. This molecule also yielded an IC50 in data set [9] of 410 nM. Moreover, the CLint scaled in data set [2] turned out to be 16 mL/min/kg; in data set [3] it was 70 mL/min/kg.
As to `O=S(=O)(Nc1cccc(F)n1)c1cc(F)c(OC2CCN(CC(F)(F)F)CC2c2ccc(F)c(F)c2)cc1F` (single isomer, unassigned; (-)), the IC50 in [1] was 240 nM; against Cytochrome P450 2C9 it was 6900 nM; in data set [22], greater than 10000 nM. The CLint scaled in data set [2] came to 9 mL/min/kg; in data set [3] it was 50 mL/min/kg. Further, the “inhibition (INH)” value on Cytochrome P450 1A2, against Cytochrome P450 3A4, on Cytochrome P450 2C19 and at Cytochrome P450 2D6 was “Not Active” in each case. The molecule also showed a clearance in data set [10] of 1.8 mL/min/kg. Moreover, the half-life in data set [11] was 4.3 h; in data set [15] it was 4.1 h. The Vd in data set [12] was determined as 0.6 L/kg. Further, the figures for the AUC in data set [13] and in data set [16] were 16 µM·h and 72 µM·h, respectively. In addition, the concentration in data set [14] peaked (Cmax) at 5.2 µM. In data set [17], the bioavailability is 45%. This molecule registered an inhibition constant Ki in data set [18] of 2020 nM. For the same molecule, the concentration at 2 h in data set [19] was found to be 2.62 µM; in [20], 9.37 µM. Besides, the Kp at 2 h in data set [21] was found to be 0.28.
